Our source for the IC50 values is PubChem BioAssay AID651672 (The Scripps Research Institute Molecular Screening Center, 2012).

Activity calls are given as the source filed them. No rule for the calls is given here. Where only a bound is given, the exact number is not on record here.

The target of this assay is Perilipin-1 (Homo sapiens) (UniProt O60240). The assay can be described thus: ABHD5 and perilipin-1 interaction blockers – biochemical, luminescence, counter-screen for ABHD5-PLIN5 interaction inhibitor project, dose response (AID 651672).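 Also: split Gaussia luciferase complementation between ABHD5 and PLIN1 fusion fragments.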 The settings on record: ABHD5-PLIN1 interaction.
Chain of Perilipin-1 (Homo sapiens) (O60240 whole entry, looked up, the tested form may be a part): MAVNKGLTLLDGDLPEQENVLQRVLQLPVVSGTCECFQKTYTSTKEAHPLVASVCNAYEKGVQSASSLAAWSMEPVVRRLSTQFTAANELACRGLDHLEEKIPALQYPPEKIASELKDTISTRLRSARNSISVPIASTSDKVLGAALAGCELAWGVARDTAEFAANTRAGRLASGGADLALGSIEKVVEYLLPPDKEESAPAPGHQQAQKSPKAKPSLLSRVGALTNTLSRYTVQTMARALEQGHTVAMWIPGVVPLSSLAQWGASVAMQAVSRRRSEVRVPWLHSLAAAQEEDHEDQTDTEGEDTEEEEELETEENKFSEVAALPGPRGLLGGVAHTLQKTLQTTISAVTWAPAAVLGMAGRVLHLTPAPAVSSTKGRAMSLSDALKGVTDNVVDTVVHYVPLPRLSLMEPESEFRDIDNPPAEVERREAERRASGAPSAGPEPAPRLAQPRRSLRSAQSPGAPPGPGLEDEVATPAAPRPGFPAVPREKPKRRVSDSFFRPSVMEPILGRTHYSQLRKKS
As for `CCOC1=CC2=C(C(=O)C(Cl)=CC2=O)[C@@H]2CN(S(=O)(=O)c3ccc(C)cc3)[C@@H](c3ccccc3)[C@H]12`, the IC50 is 1350 nM.

Turning to `CC1(C)C2CCC(CN=C(N)CSS(=O)(=O)O)C1C2` (configuration not stated), the IC50 was 4290 nM.

Regarding `Cc1cccc(C)c1NC(=O)C(c1ccc(C(F)(F)F)cc1)n1c(=O)c(-c2ccco2)nc2ccccc21` (configuration not stated), the IC50 is 2220 nM.

`CCN(CC)CCNC(=O)c1ccc(NC(=O)c2cn(-c3ccccc3)nc2-c2cccs2)cc1`: the IC50 entry was “inactive”. With `CC1CCN(S(=O)(=O)c2ccc(NC(=O)Cc3cccs3)cc2)CC1` the figure was 7020 nM; with `CC1=CC(C)(C)Nc2ccc(OC(=O)c3cccnc3)cc21`, 1930 nM. With `CCC1(C)N=C(c2ccc3c(c2)OCO3)CC(c2ccccc2O)N1` (configuration not stated) the figure was 1060 nM; with `Cc1cc(C)c(C(CC(=O)c2cccs2)C(C#N)C#N)c(C)c1` (configuration not stated), 6740 nM; with `Cc1cccc(C)c1NC(=O)C(c1cccc2ccccc12)n1c(=O)c(-c2ccco2)nc2ccccc21` (configuration not stated), 2400 nM. With `O=CC1=C(c2ccccc2)Oc2ccccc2O1` the figure was 2570 nM; with `CN1[C@@H]2CC[C@H]1CC(OC1c3ccccc3CCc3ccccc31)C2` (some centres not stated), 1920 nM. As for `Cc1ccc(/C(O)=C2/C(=O)C(=O)OC2c2ccc(Cl)cc2)cc1` (configuration not stated), the 50% inhibitory concentration (IC50) is 9380 nM.

With `CC(=O)Cc1cc(O)c2ccccc2c1OC(=O)c1ccccc1`, the IC50 was 2630 nM. With `CC(C)(C)NC(=O)C(c1ccnc2ccccc12)n1c(=O)c(-c2ccco2)nc2ccccc21` (configuration not stated) the figure was 4290 nM; with `CCCCCCC=C1CCC(CN2CCCC2)C1=O` (configuration not stated), 1370 nM; with `O=C(Cn1c(=O)n(Cc2ccco2)c(=O)c2c3c(sc21)CCCC3)Nc1ccccc1`, 8680 nM. With `O=c1[nH]c(C2CCN(S(=O)(=O)c3ccc(F)cc3)CC2)nc2c1nnn2Cc1ccc2c(c1)OCCO2` the entry was “inactive”; with `CC1=CC(C)(C)Nc2ccc(OC(=O)C(C)N3C(=O)c4ccccc4C3=O)cc21` (configuration not stated), 1820 nM.

Turning to `COC(=O)c1cc(=O)n(-c2ccc(F)cc2)c(=Nc2ccc(F)cc2)s1`, the IC50 was 2500 nM.

On to `O=C(NC1CCCCC1)C(c1cccc2ccccc12)n1c(=O)c(-c2ccco2)nc2ccccc21` (configuration not stated), for which the concentration for half-maximal inhibition (IC50) is 1220 nM. With `CSC(=Nc1ccccc1)N=C(SCc1ccccc1)N(C)C` the figure was 1180 nM; with `Cc1ccc2nc3cc([N+](=O)[O-])cc([N+](=O)[O-])c3cc2c1`, 801 nM; with `O=C(NCc1ccccc1)C(c1ccccc1F)n1c(=O)c(-c2ccco2)nc2ccccc21` (configuration not stated), 2310 nM. The same measure for `CCCCCNC(=O)C(c1ccc(C(F)(F)F)cc1)n1c(=O)c(-c2ccco2)nc2ccccc21` (configuration not stated): 2910 nM; for `CCN(CCCc1ccccc1)CCCc1ccccc1`: 2260 nM; for `CC(C)(C)NC(=O)C(C1CC1)n1c(=O)c(-c2ccco2)nc2ccccc21` (configuration not stated): 4200 nM.

Consider `N#Cc1ccc(C(C(=O)NCc2ccccc2)n2c(=O)c(-c3ccco3)nc3ccccc32)cc1` (configuration not stated), for which the IC50 was 1700 nM.

For the compound `Cc1ccc(NC(=O)CSc2nnc(-c3ccco3)c(-c3ccco3)n2)cc1`, the half-maximal inhibitory concentration (IC50) is 2660 nM. The same measure for `C=C[C@]1(C)C[C@@H](OC(=O)CSCCN(CC)CC)[C@]2(C)C(C)CC[C@]3(CCC(=O)[C@H]32)[C@@H](C)[C@@H]1O` (some centres not stated): “inactive”; for `Cc1cccc(C)c1NC(=O)C(c1ccc(-c2ccccc2)cc1)n1c(=O)c(-c2ccco2)nc2ccccc21` (configuration not stated): 1480 nM. The same measure for `CN1CCC(=C2c3ccccc3CC(=O)c3sccc32)CC1`: “inactive”.

Turning to `CCCc1nc(C)c2c(=O)[nH]c(-c3cc(S(=O)(=O)N4CCN(CC)CC4)ccc3OCC)nn12`, the concentration for half-maximal inhibition (IC50) was 2450 nM. With `CC1Sc2ccc(S(=O)(=O)N3CCC(C(=O)NCc4ccc(Cl)cc4)CC3)cc2NC1=O` (configuration not stated) the figure was 8370 nM; with `O=[N+]([O-])/C=C/c1cn(Cc2ccc(F)cc2)c2ccccc12`, 7460 nM; with `CC(C)(C)NC(=O)C(c1ccc(C(F)(F)F)cc1)n1c(=O)c(-c2ccco2)nc2ccccc21` (configuration not stated), 2690 nM. Turning to `CSc1nnc(NC(=O)c2nc(S(=O)(=O)Cc3ccccc3F)ncc2Cl)s1`, the IC50 is 2160 nM. For the compound `Cc1nc(-c2ccccc2)sc1C(=O)/C=C/c1ccccc1`, the IC50 was 2770 nM. The same measure for `COc1ccc(C(C(=O)NCc2ccccc2)n2c(=O)c(-c3ccco3)nc3ccccc32)cc1` (configuration not stated): 2170 nM. The same measure for `COc1ccc(C)c2sc(N(CCN(C)C)C(=O)/C=C/c3cccs3)nc12`: “inactive”; for `CC(C)(C)NC(=O)C(c1cc2ccccc2o1)n1c(=O)c(-c2ccco2)nc2ccccc21` (configuration not stated): 1930 nM; for `CCN(CC)CCN(CC(=O)Nc1c(C)cc(C)cc1C)C(=O)c1ccccc1`: “inactive”. As for `N#Cc1ccc(C(C(=O)NC2CCCCC2)n2c(=O)c(-c3ccco3)nc3ccccc32)cc1` (configuration not stated), the IC50 is 1920 nM.

As to `CCCC(=O)NC(c1cccc([N+](=O)[O-])c1)c1ccc2cccnc2c1O` (configuration not stated), the IC50 is > 39800 nM (inactive). In the case of `COc1cc(/C=C/C(=O)c2ccc(Cl)s2)cc(OC)c1O`, the IC50 is 4590 nM. Consider `CCN1CCN(Cc2ccc(NC(=O)c3ccc(C)c(/C=C/c4cnc(Nc5cc(N6CCNCC6)nc(C)n5)cn4)c3)cc2C(F)(F)F)CC1`, for which the IC50 is 3420 nM. `CCOC(=O)c1c(C)oc2c1c(CN1CCN(CCO)CC1)c(O)c1ccccc12`: the IC50 is 1810 nM. The same measure for `CC1=CC(C)(C)Nc2ccc(OC(=O)CN3C(=O)CCC3=O)cc21`: 1720 nM; for `CCCCCNC(=O)C(c1cc2ccccc2o1)n1c(=O)c(-c2ccco2)nc2ccccc21` (configuration not stated): 1480 nM. With `COc1ccc(NC(=O)C(c2ccc(OC)cc2)n2c(=O)c(-c3ccco3)nc3ccccc32)cc1` (configuration not stated) the figure was 7700 nM. Turning to `CCN1/C(=C/C=C/c2oc3ccc(-c4ccccc4)cc3[n+]2CC)Oc2ccc(-c3ccccc3)cc21`, the IC50 is 1240 nM.

On to `CC(C)c1nnc(NC(=O)c2nc(S(=O)(=O)Cc3ccc(F)cc3)ncc2Cl)s1`, for which the IC50 was 2840 nM. `Cc1ccc(CS(=O)(=O)c2ncc(Cl)c(C(=O)Nc3nnc(C(C)C)s3)n2)cc1`: the IC50 was 1710 nM. With `C#CCN(C[C@@H]1[C@@H](OC(=O)NCc2ccccc2F)[C@@H](OC(=O)NCc2ccccc2F)Cn2c(=O)ccc(=O)n21)S(=O)(=O)c1ccc(C)cc1` the figure was 4510 nM. Consider `COc1ccc(C(C(=O)Nc2ccc3c(c2)OCCO3)n2c(=O)c(-c3ccco3)nc3ccccc32)cc1` (configuration not stated), for which the IC50 was 5430 nM. As to `CSc1nnc(NC(=O)c2nc(S(=O)(=O)Cc3cccc(C)c3)ncc2Cl)s1`, the IC50 is 2700 nM. With `CCCCCNC(=O)C(c1cccc2ccccc12)n1c(=O)c(-c2ccco2)nc2ccccc21` (configuration not stated) the figure was 2010 nM; with `COc1cc2c(cc1OC)C(C)N(CCc1ccc(Cl)cc1)CC2` (configuration not stated), “inactive”.

Regarding `Oc1c(C(c2ccccc2)N2CCCCC2)ccc2ccccc12` (configuration not stated), the IC50 was 1010 nM. The same measure for `CCN(CC)CCC(C)OC(c1ccccc1)c1ccccc1` (configuration not stated): 2600 nM; for `CCOC(=O)c1c(NC(C)=O)sc2c1CCC(C=O)=C2Sc1ccccc1`: 3110 nM. The same measure for `O=C(NC1CCCCC1)C(c1ccc(C(F)(F)F)cc1)n1c(=O)c(-c2ccco2)nc2ccccc21` (configuration not stated): 1670 nM; for `CC(=O)C1=C(c2cccc([N+](=O)[O-])c2)N(C(C)=O)n2c(C)nnc2S1`: 2470 nM; for `COC/C=C/C1=CC2=CC(=O)C(C)(OC(=O)C3CCCC3)C(=O)C2=CO1` (configuration not stated): 2450 nM. Regarding `CSc1nnc(NC(=O)c2nc(S(=O)(=O)Cc3ccccc3)ncc2Cl)s1`, the IC50 was 3270 nM. Regarding `O=C(NCc1ccccc1)C(C1CC1)n1c(=O)c(-c2ccco2)nc2ccccc21` (configuration not stated), the IC50 is 6050 nM. Consider `Cc1cc(C)c(NC(=O)C[N+](C)(C)CC(O)COc2cccc3ccccc23)c(C)c1` (configuration not stated), for which the IC50 was 7990 nM.

On to `COc1cccc2sc(N(CCCN(C)C)C(=O)COc3ccc(Cl)cc3)nc12`, for which the IC50 result was “inactive”. With `CCCCCNC(=O)C(c1ccc(C#N)cc1)n1c(=O)c(-c2ccco2)nc2ccccc21` (configuration not stated) the figure was 2980 nM.

For the compound `C#CCOCCOCCOCCNc1nc(N2CCN(C(=O)CCCCCCCCCCNC(=O)[C@@H](CCSC)n3cc(CCO)nn3)CC2)nc(N2CCN(C(=O)CCCCCCCCCCNC(=O)[C@@H]([C@H](C)O)n3cc(C)nn3)CC2)n1`, the IC50 result was “inactive”. With `CC(=O)Nc1ccc(S(=O)(=O)N2c3ccc(F)cc3CCC2C)cc1` (configuration not stated) the entry was “inactive”. With `Cc1oc2c(c1C(=O)c1ccc(Cl)cc1)C(=O)C(=O)c1ccccc1-2` the figure was 3990 nM. The same measure for `CCSc1nnc(NC(=O)c2nc(S(=O)(=O)Cc3ccc(F)cc3)ncc2Cl)s1`: 2680 nM; for `CN(C)CCOc1ccc(/C(=C(/CCCl)c2ccccc2)c2ccccc2)cc1`: 1140 nM; for `Cc1ccc(CC2(OCCN(C)C)CCC(C(C)(C)C)CC2)cc1` (configuration not stated): 9480 nM. Regarding `CCCNC(=O)Nc1ccc2c(c1)N(C)C(=O)c1ccccc1S2`, the IC50 is 4980 nM. With `O=C1CC(c2ccc(Cl)cc2)Oc2ccc(Cl)cc21` (configuration not stated) the figure was 2950 nM; with `O=C(Nc1ccc(Cl)cc1)/C(=C/c1cccc(O)c1)c1nc2ccccc2s1`, 1680 nM; with `O=C(NCc1ccccc1)C(c1ccc(C(F)(F)F)cc1)n1c(=O)c(-c2ccco2)nc2ccccc21` (configuration not stated), 1590 nM. The same measure for `CC1=CC(C)(C)Nc2ccc(OC(=O)CN3C(=O)C4CCCCC4C3=O)cc21` (configuration not stated): 2300 nM; for `O=C(COc1ccccc1Cl)Nc1ccc(N2CCCC2)cc1`: > 39900 nM (inactive); for `CCOc1cc(/C=C2\CCC/C(=C\c3cc(Cl)c(O)c(OCC)c3)C2=O)cc(Cl)c1O`: 3880 nM. With `CCN(CC)CCOc1ccc(/C(=C(\Cl)c2ccccc2)c2ccccc2)cc1` the figure was 2230 nM. As to `CC(C)(C)NC(=O)C(c1cccc2ccccc12)n1c(=O)c(-c2ccco2)nc2ccccc21` (configuration not stated), the IC50 was 2040 nM. With `CC(C)(C)NC(=O)C(c1ccc(C#N)cc1)n1c(=O)c(-c2ccco2)nc2ccccc21` (configuration not stated) the figure was 1410 nM; with `CCOC(=O)N1CCN(C(=O)C[C@@H]2C[C@@]3(C(=O)OCC)CCC=C3N(Cc3ccc(Cl)cc3Cl)C2=O)CC1`, 9780 nM; with `CCCCCNC(=O)C(c1ccccc1F)n1c(=O)c(-c2ccco2)nc2ccccc21` (configuration not stated), 1090 nM. The same measure for `Cc1ccc2c(CC(=O)N3CCN(S(=O)(=O)c4ccc5c(c4)OCCO5)CC3)coc2c1`: 5110 nM.
